In brackets after ≈: the same amount, converted by molar mass.
Legend:
[1] = 50 mg/mL elraglusib solutions in 12 Vehicle Variants, HPLC with and without syringe filtration; assay type: physicochemical; conditions: no precipitation or haziness, no visible particulates
Experimental: An initial study prepared 50 mg/mL elraglusib solutions in 12 Vehicle Variants.
Each Vehicle Variant was made to 50 mg/mL with elraglusib and was tested (with and without syringe filtration) with respect to: (1) elraglusib main peak Area %, (2) related substance RRT 0.96 Area %, and (3) related Substance Area % RRT 0.97.

[2] = Elra:PVAP and Elra:CAP ASD stability study (XRPD, mDSC, TGA, HPLC, ssNMR); assay type: physicochemical; conditions: crystallinity marker peak of API
Experimental: Both ASDs stored remained amorphous up to 12 weeks storage under the above-mentioned conditions (FIG. 21). The mDSC of the stability samples was carried out in a hermetically sealed pan without any pin hole, to determine the Tg in the presence of residual solvent or moisture (i.e., wet Tg).
An HPLC chromatogram was also obtained using HPLC monitored at 210 nm for a sample stored for 12 weeks at different conditions.
The first derivative was applied to the stability sample spectra (FIGS. 25-29). For pure amorphous samples, ssNMR produces gaussian curves that when applied to first derivative become a flat baseline. Crystalline material produces Laplacian curves by ssNMR which can be clearly observed after applying the first derivative.
Signal to noise ratio of API reference was 8.18. In all four stability samples, the signal to noise ratio for the first derivative peak at 87 ppm remained <2.
Solid-state NMR experiments were performed on a 2 channel Bruker NEO spectrometer (Bruker, Billerica, MA) operating at 100.52 MHz for 13C and 399.71 MHz for 1H. A Chemagnetics APEX probe, refitted with a 7 mm magic angle spinning module (Revolution NMR, Fort Collins, CO) was used to acquire the data. Each sample was packed into a 7 mm zirconia rotor with Kel-F spacers. The magic angle spinning (MAS) frequency that was used to acquire all of the data was 5 kHz. […]

in vivo = assay: in vivo; set-up: species or system Beagle dogs; conditions: male, Beagle, dog; for AUC(0-inf): AUCINF; for AUC(0-t): AUClast
Experimental: The objective of this study was to evaluate the pharmacokinetic profile of elraglusib following single oral and intravenous doses in Beagle dogs.
The test article (elraglusib in a vehicle of 85% PEG400, 10% ethanol, 5% water (all components are weight/weight/weight)) was administered orally and via intravenous infusion to dogs according to the tables below.
Male Beagle dogs were selected for use in this study. Animals were at least 6 months old and males weighed approximately 9.3-10.8 kilograms at the start of dosing.
The study animals received a single oral dose of elraglusib followed by an approximate 7-day washout period after which they received a single intravenous infusion of elraglusib. Animals underwent standard evaluations such as body weight and clinical observations, and were bled for pharmacokinetics following each dose.
Plasma concentrations of elraglusib were determined for dogs treated with 20 mg/kg elraglusib via oral administration on Day 1 and then again via intravenous infusion on Day 8. […] Individual plasma concentrations were highest approximately 2-8 hours after oral administration (1,410-1,880 ng/mL), and highest at approximately 5 minutes following intravenous administration (11,800-13,600 ng/mL).

[3] = Solubility of elraglusib in acetone, acetone:water and THF with and without polymers (24 h, visual and HPLC); assay type: physicochemical; conditions: for time to precipitation when agitated: ~4% w/w solids; for visual observation: stirred
Experimental: The solubility of elraglusib API with and without polymers of interest was evaluated in acetone. […] Samples were prepared according to Table 6-13. […] Additional studies were performed to determine if an increased water content would prevent formation of the solvate precipitate and more dilute solutions were tested for potential ASD processing.

[4] = as above; assay type: physicochemical

- solubility in Vehicle Variants (visual) [1]: remained soluble at 50 mg/mL
- ssNMR Signal to Noise (87-96 ppm), first derivative spectra [2]: 8.18
- bioavailability (in vivo): 31%
- AUClast, IV versus PO (in vivo; 20 mg/kg): approximately 3 fold
- AUC (in vivo; iv, 20 mg/kg): 68900 ng·h/mL
- highest individual plasma concentrations (in vivo; iv, 20 mg/kg): 11,800-13,600 ng/mL
- time of highest individual plasma concentrations (in vivo; iv, 20 mg/kg): approximately 5 minutes
- AUC(0-inf) (in vivo; iv, 20 mg/kg): 72800 ng·h/mL
- AUC(0-t) (in vivo; iv, 20 mg/kg): 68900 ng·h/mL
- Cmax (in vivo; iv, 20 mg/kg): 12800 ng/mL
- Tmax (in vivo; iv, 20 mg/kg, Tmax): 4.98 min
- half-life (in vivo; iv, 20 mg/kg, t1/2): 6.05 h
- AUC (in vivo; po, 20 mg/kg): 21300 ng·h/mL
- highest individual plasma concentrations (in vivo; po, 20 mg/kg): 1,410-1,880 ng/mL
- time of highest individual plasma concentrations (in vivo; po, 20 mg/kg): 2 to 8 h
- AUC(0-inf) (in vivo; po, 20 mg/kg): 22600 ng·h/mL
- AUC(0-t) (in vivo; po, 20 mg/kg): 21300 ng·h/mL
- Cmax (in vivo; po, 20 mg/kg): 1670 ng/mL
- time remaining soluble ([3]; 1.5-2.0% w/w in 95:5 acetone:water): over 24 hours
- time to precipitation when agitated ([3]; 90:10 acetone:water): 3.5 h
- time to precipitation when agitated ([3]; 95:5 acetone:water): 2 h
- visual observation ([3]; Table 6-14 Sample 1: 4.02% w/w in Acetone, 30 min): Translucent
- visual observation ([3]; Table 6-14 Sample 1: 4.02% w/w in Acetone, 1 hour): Translucent
- visual observation ([3]; Table 6-14 Sample 1: 4.02% w/w in Acetone, 2 hours): Precipitation
- visual observation ([3]; Table 6-14 Sample 1: 4.02% w/w in Acetone, 4 hours): No change
- visual observation ([3]; Table 6-14 Sample 1: 4.02% w/w in Acetone, 8 hours): No change
- visual observation ([3]; Table 6-14 Sample 1: 4.02% w/w in Acetone, 24 hours): No change
- visual observation ([3]; Table 6-14 Sample 2: 4.02% w/w in THF, 30 min): Translucent
- visual observation ([3]; Table 6-14 Sample 2: 4.02% w/w in THF, 1 hour): Translucent
- visual observation ([3]; Table 6-14 Sample 2: 4.02% w/w in THF, 2 hours): Translucent
- visual observation ([3]; Table 6-14 Sample 2: 4.02% w/w in THF, 4 hours): Translucent
- visual observation ([3]; Table 6-14 Sample 2: 4.02% w/w in THF, 8 hours): Translucent
- visual observation ([3]; Table 6-14 Sample 2: 4.02% w/w in THF, 24 hours): Translucent
- visual observation ([3]; Table 6-14 Sample 3: 4.02% w/w in 95:5 Acetone:Water, 30 min): Translucent
- visual observation ([3]; Table 6-14 Sample 3: 4.02% w/w in 95:5 Acetone:Water, 1 hour): Translucent
- visual observation ([3]; Table 6-14 Sample 3: 4.02% w/w in 95:5 Acetone:Water, 2 hours): Precipitation
- visual observation ([3]; Table 6-14 Sample 3: 4.02% w/w in 95:5 Acetone:Water, 4 hours): No change
- visual observation ([3]; Table 6-14 Sample 3: 4.02% w/w in 95:5 Acetone:Water, 8 hours): No change
- visual observation ([3]; Table 6-14 Sample 3: 4.02% w/w in 95:5 Acetone:Water, 24 hours): No change
- visual observation ([3]; Table 6-14 Sample 4: 3.96% w/w API in Acetone with HPMCAS-MG (7.96% w/w total solids), 30 min): Hazy
- visual observation ([3]; Table 6-14 Sample 4: 3.96% w/w API in Acetone with HPMCAS-MG (7.96% w/w total solids), 1 hour): Hazy
- visual observation ([3]; Table 6-14 Sample 4: 3.96% w/w API in Acetone with HPMCAS-MG (7.96% w/w total solids), 2 hours): Hazy but no
- visual observation ([3]; Table 6-14 Sample 4: 3.96% w/w API in Acetone with HPMCAS-MG (7.96% w/w total solids), 4 hours): Precipitation
- visual observation ([3]; Table 6-14 Sample 4: 3.96% w/w API in Acetone with HPMCAS-MG (7.96% w/w total solids), 8 hours): No change
- visual observation ([3]; Table 6-14 Sample 4: 3.96% w/w API in Acetone with HPMCAS-MG (7.96% w/w total solids), 24 hours): No change
- visual observation ([3]; Table 6-17 Sample 1: 3.99% w/w in 90:10 acetone:water, 30 min): Translucent
- visual observation ([3]; Table 6-17 Sample 1: 3.99% w/w in 90:10 acetone:water, 1 hour): Translucent
- visual observation ([3]; Table 6-17 Sample 1: 3.99% w/w in 90:10 acetone:water, 2 hours): Translucent
- visual observation ([3]; Table 6-17 Sample 1: 3.99% w/w in 90:10 acetone:water, 3.5 hours): Precipitation
- visual observation ([3]; Table 6-17 Sample 1: 3.99% w/w in 90:10 acetone:water, 4 hours): No change
- visual observation ([3]; Table 6-17 Sample 1: 3.99% w/w in 90:10 acetone:water, 21.5 hours): No change
- visual observation ([3]; Table 6-17 Sample 2: 3.99% w/w in 95:5 acetone:water, 30 min): Translucent
- visual observation ([3]; Table 6-17 Sample 2: 3.99% w/w in 95:5 acetone:water, 1 hour): Translucent
- visual observation ([3]; Table 6-17 Sample 2: 3.99% w/w in 95:5 acetone:water, 2 hours): Precipitation
- visual observation ([3]; Table 6-17 Sample 2: 3.99% w/w in 95:5 acetone:water, 3.5 hours): No change
- visual observation ([3]; Table 6-17 Sample 2: 3.99% w/w in 95:5 acetone:water, 4 hours): No change
- visual observation ([3]; Table 6-17 Sample 2: 3.99% w/w in 95:5 acetone:water, 21.5 hours): No change
- visual observation ([3]; Table 6-17 Sample 3: 2.04% w/w in 95:5 acetone:water, 30 min): Translucent
- visual observation ([3]; Table 6-17 Sample 3: 2.04% w/w in 95:5 acetone:water, 1 hour): No change
- visual observation ([3]; Table 6-17 Sample 3: 2.04% w/w in 95:5 acetone:water, 2 hours): No change
- visual observation ([3]; Table 6-17 Sample 3: 2.04% w/w in 95:5 acetone:water, 3.5 hours): No change
- visual observation ([3]; Table 6-17 Sample 3: 2.04% w/w in 95:5 acetone:water, 4 hours): No change
- visual observation ([3]; Table 6-17 Sample 3: 2.04% w/w in 95:5 acetone:water, 21.5 hours): No change
- visual observation ([3]; Table 6-17 Sample 4: 1.84% w/w in 95:5 acetone:water, 30 min): Translucent
- visual observation ([3]; Table 6-17 Sample 4: 1.84% w/w in 95:5 acetone:water, 1 hour): No change
- visual observation ([3]; Table 6-17 Sample 4: 1.84% w/w in 95:5 acetone:water, 2 hours): No change
- visual observation ([3]; Table 6-17 Sample 4: 1.84% w/w in 95:5 acetone:water, 3.5 hours): No change
- visual observation ([3]; Table 6-17 Sample 4: 1.84% w/w in 95:5 acetone:water, 4 hours): No change
- visual observation ([3]; Table 6-17 Sample 4: 1.84% w/w in 95:5 acetone:water, 21.5 hours): No change
- visual observation ([3]; Table 6-17 Sample 5: 1.54% w/w in 95:5 acetone:water, 30 min): Translucent
- visual observation ([3]; Table 6-17 Sample 5: 1.54% w/w in 95:5 acetone:water, 1 hour): No change
- visual observation ([3]; Table 6-17 Sample 5: 1.54% w/w in 95:5 acetone:water, 2 hours): No change
- visual observation ([3]; Table 6-17 Sample 5: 1.54% w/w in 95:5 acetone:water, 3.5 hours): No change
- visual observation ([3]; Table 6-17 Sample 5: 1.54% w/w in 95:5 acetone:water, 4 hours): No change
- visual observation ([3]; Table 6-17 Sample 5: 1.54% w/w in 95:5 acetone:water, 21.5 hours): No change
- solubility in acetone ([3]; crystallizes at room temperature at static conditions): 4 % w/w
- solubility at 24 h ([3]; organic solvent or mixture, thermodynamic from solid, acetone, 24 hours, read-out: measured solubility by HPLC): 13.1 mg/mL (≈ 32.3 mM)
- measured concentration by HPLC ([4]; THF solution, 24 hours (theoretical 37 mg/mL)): 34.68 mg/mL
- time remaining soluble ([4]; tetrahydrofuran (THF)): over 24 hours
Structure (SMILES): Cn1cc(C2=C(c3coc4ccc(F)cc34)C(=O)NC2=O)c2cc3c(cc21)OCO3 [elraglusib, 3-(5-fluorobenzofuran-3-yl)-4-(5-methyl-5H-[1,3]dioxolo[4,5-f]indol-7-yl)-1H-pyrrole-2,5-dione]

Reference: patent publication US20250325517A1, “ORAL DOSAGE FORMS OF ELRAGLUSIB” (Actuate Therapeutics, Inc., priority 2022, published 2025)
